Experimental data: patent US8691816B2, “Pyrrole inhibitors of S-nitrosoglutathione reductase as therapeutic agents” (N30 Pharmaceuticals, Inc., priority 2008, dated 2014)
Read-outs that look alike come from different tables or passages of the source.

Legend:
[1] = test system: mouse model of ovalbumin (OVA)-induced asthma; assay: Experimental asthma model: eosinophil infiltrate in bronchioalveolar lavage fluid (BALF); format: in vivo
Procedure: (§1) A mouse model of ovalbumin (OVA)-induced asthma was used to screen GSNOR inhibitors for efficacy against methacholine (MCh)-induced bronchoconstriction/airway hyper-reactivity. This is a widely used and well characterized model that presents with an acute, allergic asthma phenotype with similarities to human asthma. Efficacy of GSNOR inhibitors were assessed using a prophylactic protocol in which GSNOR inhibitors were administered prior to challenge with MCh. Bronchoconstriction in response to challenge with increasing doses of MCh was assessed using whole body plethysmography (Penh; Buxco). The amount of eosinophil infiltrate into the bronchioalveolar lavage fluid (BALF) was also determined as a measure of lung inflammation. The effect of GSNOR inhibitors were compared to vehicles and to Combivent (inhaled; IH) as the positive control.
(§2) OVA (500 μg/ml) in PBS was mixed with equal volumes of 10% (w/v) aluminum potassium sulfate in distilled water and incubated for 60 min. at room temperature after adjustment to pH 6.5 using 10 N NaOH. After centrifugation at 750×g for 5 min, the OVA/alum pellet was resuspended to the original volume in distilled water. Mice received an intraperitoneal (IP) injection of 100 μg OVA (0.2 mL of 500 μg/mL in normal saline) complexed with alum on day 0. Mice were anesthetized by IP injection of a 0.2-mL mixture of ketamine and xylazine (0.44 and 6.3 mg/mL, respectively) in normal saline and were placed on a board in the supine position. Two hundred fifty micrograms (100 μl of a 2.5 mg/ml) of OVA (on day 8) and 125 μg (50 μl of 2.5 mg/ml) OVA (on days 15, 18, and 21) were placed on the back of the tongue of each animal.
After measurement of airway hyper-reactivity, the mice were exsanguination by cardiac puncture, and then BALF was collected from either both lungs or from the right lung after tying off the left lung at the mainstem bronchus. Total BALF cells were counted from a 0.05 mL aliquot, and the remaining fluid is centrifuged at 200×g for 10 min at 4° C. Cell pellets were resuspended in saline containing 10% BSA with smears made on glass slides. Eosinophils were stained for 5 min. with 0.05% aqueous eosin and 5% acetone in distilled water, rinsed with distilled water, and counterstained with 0.07% methylene blue.
(§3) GSNOR inhibitors were reconstituted in phosphate buffered saline (PBS), pH 7.4, at concentrations ranging from 0.00005 to 3 mg/mL. GSNOR inhibitors were administered to mice (10 mL/kg) as a single dose either intravenously (IV) or orally via gavage. Dosing was performed from 30 min. to 24 h prior to MCh challenge. Effect of GSNOR inhibitors were compared to PBS vehicle dosed in the same manner.
Area under the curve values for Penh across baseline, saline, and increasing doses of MCh challenge were calculated using GraphPad Prism 5.0 (San Diego, Calif.) and expressed as a percent of the respective (IV or orally administered) vehicle control. Statistical differences among treatment groups and the respective vehicle control group within each study were calculated using one-way ANOVA, Dunnetts (JMP 8.0, SAS Institute, Cary, N.C.).

[2] = test system: mouse model of ovalbumin (OVA)-induced asthma; assay: Experimental asthma model: methacholine (MCh)-induced bronchoconstriction/airway hyper-reactivity (Penh) in ovalbumin (OVA)-induced asthma; format: in vivo; details: for response vs control in vivo at 10 mg/kg: single IV dose 10 mg/kg; for response vs control in vivo at 0.1 mg/kg: single IV dose 0.1 mg/kg; for response vs control in vivo at 1 mg/kg: single IV dose 1 mg/kg; for response vs control in vivo at 30 mg/kg: single oral dose 30 mg/kg; for efficacy against experimental asthma (attenuation of MCh induced bronchoconstriction and pulmonary inflammation): administered intravenously (IV) or orally; for efficacy against experimental asthma (attenuation of MCh induced bronchoconstriction): administered intravenously (IV)
Procedure: as §1, §2
In vivo airway responsiveness to methacholine was measured 24 h after the last OVA challenge in conscious, freely moving, spontaneously breathing mice with whole body plethysmography using a Buxco chamber (Wilmington, N.C.). Mice were challenged with aerosolized saline or increasing doses of methacholine (5, 20 and 50 mg/mL) generated by an ultrasonic nebulizer for 2 min. The degree of bronchoconstriction was expressed as enhanced pause (Penh), a calculated dimensionless value, which correlates with the measurement of airway resistance, impedance, and intrapleural pressure in the same mouse. Penh readings were taken and averaged for 4 min. after each nebulization challenge. Penh was calculated as follows: Penh=[(Te/Tr−1)×(PEF/PIF)], where Te is expiration time, Tr is relaxation time, PEF is peak expiratory flow, and PIF is peak inspiratory flow×0.67 coefficient. The time for the box pressure to change from a maximum to a user-defined percentage of the maximum represents the relaxation time. The Tr measurement begins at the maximum box pressure and ends at 40%.
as §3
Combivent was used as the positive control in all studies. Combivent (Boehringer Ingelheim) was administered to the lung using the inhaler device supplied with the product, but adapted for administration to mice, using a pipet tip. Combivent was administered 48 h, 24 h, and 1 h prior to MCh challenge. Each puff (or dose) of Combivent provided a dose of 18 μg ipatropium bromide (IpBr) and 103 μg albuterol sulfate or approximately 0.9 mg/kg IpBr and 5 mg/kg albuterol.
Area under the curve values for Penh across baseline, saline, and increasing doses of MCh challenge were calculated using GraphPad Prism 5.0 (San Diego, Calif.) and expressed as a percent of the respective (IV or orally administered) vehicle control.

[3] = test system: OVA sensitized mice, methacholine-induced bronchial hyper-reactivity; assay: GSNOR inhibition assay in an in vivo animal model: OVA mouse model of asthma, methacholine challenge, Penh by whole body plethysmograph; details: 1 mg/kg, 10 mg/kg or 30 mg/kg intravenously 24 hours prior
Procedure: In an effort to determine if similar observations would manifest if GSNOR were inhibited pharmacologically by a GSNOR inhibitor, an OVA mouse model (i.e., the wild-type model of Que et al.) was used. In this study, OVA sensitized mice were administered 1 mg/kg, 10 mg/kg or 30 mg/kg of Compound 1 intravenously at 24 hours prior to being placed in a whole body plethysmograph (Buxco Research Systems, Wilmington, N.C.) and provided with fresh air.
Subject animals were then challenged with an aerosol of increasing dosages of the bronchoconstrictive agent methacholine, a pharmacologic agent commonly used in determining the degree of bronchial hyper-reactivity in experimental subjects. In this study mice were exposed to an increasing concentration of methacholine, each dose being presented for 3 minutes, during which time readings were taken. Doses of methacholine were 0 mg/ml, 5 mg/ml, 20 mg/ml, and 50 mg/ml. The degree of bronchial hyper-reactivity was measured as the ‘Enhanced Pause’ (Penh), a unit-less index of airway hyper-reactivity (Dohi et al., Lab Invest. 79(12):1559-1571, 1999).

[4] = test system: mouse model of ovalbumin (OVA)-induced asthma; assay: Experimental asthma model: methacholine (MCh)-induced bronchoconstriction/airway hyper-reactivity (Penh) in ovalbumin (OVA)-induced asthma; format: in vivo; details: single IV dose 0.1 mg/kg, 48 h prior to MCh, read-out: area under the curve (AUC) for Penh response as percent of vehicle control
[5] = single IV dose 1 mg/kg, 24 h prior to MCh
[6] = single oral dose 30 mg/kg, 24 h prior to MCh
[7] = Mus musculus, 24 h prior to MCh, read-out: area under the curve (AUC) for Penh response as percent of vehicle control

| Structure (SMILES) | reduction of eosinophil infiltration into the BALF [1, 5] | reduction of eosinophil infiltration into the BALF [1, 6] | response vs control in vivo at 1 mg/kg [2, 7] | response vs control in vivo at 30 mg/kg [2, 7] | efficacy against experimental asthma (attenuation of MCh induced bronchoconstriction and pulmonary inflammation) [2] | efficacy against experimental asthma (attenuation of MCh induced bronchoconstriction) [2] | other results |
| --- | --- | --- | --- | --- | --- | --- | --- |
| COc1cc(Cl)ccc1-c1ccc(CCC(=O)O)n1-c1ccc(C(N)=O)cc1C [Compound 116, 3-(1-(4-carbamoyl-2-methylphenyl)-5-(4-chloro-2-methoxy-phenyl)-1H-pyrrol-2-yl)propanoic acid] | 100% | 100% | 60.2 ± 7.9% | 26.7 ± 1.4% | efficacious | – | reduction of eosinophil infiltration into the BALF ([1]; single IV dose 0.1 mg/kg, 24 h prior to MCh): 79%; reduction of eosinophil infiltration into the BALF ([1]; single IV dose 10 mg/kg, 30 min. prior to MCh): 94%; reduction of eosinophil infiltration into the BALF ([1]; single IV dose 10 mg/kg, 24 h prior to MCh): 100%; response vs control in vivo at 10 mg/kg ([2]; Mus musculus, 0.5 h, 30 min. prior to MCh, read-out: area under the curve (AUC) for Penh response as percent of vehicle control): 35.2 ± 9.3%; response vs control in vivo at 0.1 mg/kg [2, 7]: 64.2 ± 7.6%; response vs control in vivo at 10 mg/kg [2, 7]: 40.7 ± 2.4% |
| Cc1cc(C(N)=O)ccc1-n1c(CCC(=O)O)ccc1-c1ccc(-n2ccnc2C)cc1 [Compound 3, 3-(1-(4-carbamoyl-2-methyl-phenyl)-5-(4-(2-methyl-1H-imidazol-1-yl)phenyl)-1H-pyrrol-2-yl)propanoic acid] | 46% | – | 71 ± 8.6% | – | – | efficacious | – |
| COc1ccc(-c2ccc(CCC(=O)O)n2-c2ccc(C(N)=O)cc2C)cc1 [Compound 9, 3-(1-(4-carbamoyl-2-methylphenyl)-5-(4-methoxy-phenyl)-1H-pyrrol-2-yl)propanoic acid] | 92% | 100% | 65.3 ± 5.9% | 24.6 ± 3% | efficacious | – | – |
| Cc1cc(NS(C)(=O)=O)ccc1-n1c(CCC(=O)O)ccc1-c1ccc(-n2ccnc2C)s1 [Compound 171, 3-(5-(5-(2-methyl-1H-imidazol-1-yl)thiophen-2-yl)-1-(2-methyl-4-(methyl-sulfonamido)-phenyl)-1H-pyrrol-2-yl)propanoic acid] | 63% | – | 78.7 ± 8.1% | – | – | efficacious | – |
| Cc1cc(C(N)=O)ccc1-n1c(CCC(=O)O)ccc1-c1ccc(Br)cc1 [Compound 12, 3-(5-(4-bromophenyl)-1-(4-carbamoyl-2-methylphenyl)-1H-pyrrol-2-yl)propanoic acid] | – | – | – | – | – | efficacious | – |
| Cc1cc(C(N)=O)ccc1-n1c(CCC(=O)O)ccc1-c1ccc(-n2ccnc2)cc1 [Compound 1, 3-(5-(4-(1H-imidazol-1-yl)phenyl)-1-(4-carbamoyl-2-methyl-phenyl)-1H-pyrrol-2-yl)propanoic acid] | – | – | – | – | – | efficacious | broncho-constrictive responses (Penh) to methacholine challenge compared with vehicle-only dosed animals [3]: lower broncho-constrictive responses; response vs control in vivo at 0.1 mg/kg [4]: 64.4 ± 55%; reduction of eosinophil infiltration into the BALF ([1]; single IV dose 0.01 mg/kg, 24 h prior to MCh): 98%; ED50 ([2]; Mus musculus, iv, read-out: ED50, dose demonstrating 50% reduction in Penh response): 0.011 ± 0.003 mg/kg; response vs control in vivo at 0.01 mg/kg ([2]; Mus musculus, single IV dose 0.01 mg/kg, 24 h prior to MCh, read-out: area under the curve (AUC) for Penh response as percent of vehicle control): 42.1 ± 2.8%; response vs control in vivo at 0.1 mg/kg ([2]; Mus musculus, 1 h prior to MCh, read-out: area under the curve (AUC) for Penh response as percent of vehicle control): 76.4 ± 6.6% |
